Results published in ChEMBL document CHEMBL5723035, “Affinity Biochemical Literature for EUbOPEN Chemogenomic Library” (2024).
Values belong to the compound of their own block, whether it stands above or below them.

Assays:
Set-up in all cases: mode of action Inhibitor, recommended concentration 1 uM
[1] = biological target: Triacylglycerol hydrolase DDHD2 (Homo sapiens, UniProt O94830); experiment: Affinity Biochemical interaction: (Gel-based competitive activity-based protein profiling with HT-01 probe and membranes) EUB0002612a DDHD2; format: functional, cell membranes
Sequence of Triacylglycerol hydrolase DDHD2 (O94830 whole entry): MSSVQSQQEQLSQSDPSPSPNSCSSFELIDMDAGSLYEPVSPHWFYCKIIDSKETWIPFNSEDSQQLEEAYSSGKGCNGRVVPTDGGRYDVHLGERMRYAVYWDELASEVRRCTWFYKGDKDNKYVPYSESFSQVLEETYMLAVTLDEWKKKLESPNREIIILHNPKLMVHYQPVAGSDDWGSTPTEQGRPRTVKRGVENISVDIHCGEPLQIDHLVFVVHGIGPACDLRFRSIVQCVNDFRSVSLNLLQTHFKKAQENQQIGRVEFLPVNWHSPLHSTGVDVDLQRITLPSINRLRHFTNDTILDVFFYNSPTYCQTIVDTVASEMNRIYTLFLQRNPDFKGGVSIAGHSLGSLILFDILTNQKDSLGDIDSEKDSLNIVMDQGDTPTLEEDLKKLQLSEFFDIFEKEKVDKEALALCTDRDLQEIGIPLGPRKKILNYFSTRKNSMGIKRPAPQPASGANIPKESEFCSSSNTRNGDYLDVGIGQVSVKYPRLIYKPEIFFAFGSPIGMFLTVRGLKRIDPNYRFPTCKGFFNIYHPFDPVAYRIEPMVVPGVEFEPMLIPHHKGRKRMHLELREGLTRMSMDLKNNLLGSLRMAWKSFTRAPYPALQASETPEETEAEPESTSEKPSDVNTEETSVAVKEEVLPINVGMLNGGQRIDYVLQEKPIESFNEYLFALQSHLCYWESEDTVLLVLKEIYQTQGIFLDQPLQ

[2] = biological target: 3',5'-cyclic-AMP phosphodiesterase 4D (Homo sapiens, UniProt Q08499); experiment: Affinity Biochemical interaction: ([…]) EUB0002544a PDE4D; format: cell-free
Sequence of 3',5'-cyclic-AMP phosphodiesterase 4D (Q08499 whole entry): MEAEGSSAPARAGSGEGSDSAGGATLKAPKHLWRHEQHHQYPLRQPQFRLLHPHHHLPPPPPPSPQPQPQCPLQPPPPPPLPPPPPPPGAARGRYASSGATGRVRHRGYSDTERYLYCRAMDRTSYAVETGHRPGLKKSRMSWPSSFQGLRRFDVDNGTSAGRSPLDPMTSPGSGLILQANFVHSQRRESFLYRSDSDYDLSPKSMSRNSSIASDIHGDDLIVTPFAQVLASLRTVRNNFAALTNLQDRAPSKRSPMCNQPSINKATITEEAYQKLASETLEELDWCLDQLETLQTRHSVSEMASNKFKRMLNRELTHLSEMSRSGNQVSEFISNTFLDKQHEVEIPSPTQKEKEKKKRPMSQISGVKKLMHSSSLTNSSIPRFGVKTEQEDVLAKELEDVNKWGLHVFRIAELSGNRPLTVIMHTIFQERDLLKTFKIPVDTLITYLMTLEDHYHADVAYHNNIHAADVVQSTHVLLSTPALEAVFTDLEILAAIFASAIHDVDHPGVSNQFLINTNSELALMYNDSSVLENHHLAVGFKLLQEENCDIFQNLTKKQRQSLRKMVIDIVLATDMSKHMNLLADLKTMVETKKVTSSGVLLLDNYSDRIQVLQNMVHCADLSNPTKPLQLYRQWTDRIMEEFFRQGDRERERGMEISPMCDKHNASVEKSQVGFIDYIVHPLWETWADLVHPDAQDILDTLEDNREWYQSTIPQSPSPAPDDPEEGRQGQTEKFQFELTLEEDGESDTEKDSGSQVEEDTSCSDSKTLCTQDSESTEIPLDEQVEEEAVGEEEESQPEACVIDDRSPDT

[3] = biological target: sn-1-specific diacylglycerol lipase ABHD11 (Homo sapiens, UniProt Q8NFV4); experiment: Affinity Biochemical interaction: (fluorescence-based biochemical gel-based Activity-Based Protein Profiling (ABPP)) EUB0002643a ABHD11; format: functional
Sequence of sn-1-specific diacylglycerol lipase ABHD11 (Q8NFV4 whole entry): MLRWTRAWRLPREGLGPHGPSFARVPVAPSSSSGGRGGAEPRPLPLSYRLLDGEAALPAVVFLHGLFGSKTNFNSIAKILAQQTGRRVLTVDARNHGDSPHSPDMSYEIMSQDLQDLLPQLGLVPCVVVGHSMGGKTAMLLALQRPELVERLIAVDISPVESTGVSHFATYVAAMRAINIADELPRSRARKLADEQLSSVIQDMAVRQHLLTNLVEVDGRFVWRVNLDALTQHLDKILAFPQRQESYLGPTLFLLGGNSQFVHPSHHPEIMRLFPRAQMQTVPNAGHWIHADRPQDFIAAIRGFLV

[4] = biological target: T1, Nucleotide triphosphate diphosphatase NUDT15 (Homo sapiens, UniProt Q9NV35); experiment: Affinity Biochemical interaction: (enzyme-coupled MG (Malachite Green) assay with […]) EUB0002330a NUDT15; format: functional
T1 sequence (Q9NV35 whole entry): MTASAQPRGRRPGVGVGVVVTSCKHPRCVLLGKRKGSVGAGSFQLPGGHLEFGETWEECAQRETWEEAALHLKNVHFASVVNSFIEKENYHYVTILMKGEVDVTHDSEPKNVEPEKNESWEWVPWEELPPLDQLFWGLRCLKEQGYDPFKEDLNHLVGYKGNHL

[5] = biological target: T1, Nucleotide triphosphate diphosphatase NUDT15; experiment: Affinity Biochemical interaction: (enzyme-coupled MG (Malachite Green) assay with 6-thio-dGTP) EUB0002330a NUDT15; format: functional
[6] = biological target: T2, Equilibrative nucleoside transporter 1 (Homo sapiens, UniProt Q99808); experiment: Affinity Biochemical interaction: (inhibition of [3H]nitrobenzylthioinosine binding to SLC29A1 in membranes) EUB0002560a SLC29A1; format: cell membranes
T2 sequence (Q99808 whole entry): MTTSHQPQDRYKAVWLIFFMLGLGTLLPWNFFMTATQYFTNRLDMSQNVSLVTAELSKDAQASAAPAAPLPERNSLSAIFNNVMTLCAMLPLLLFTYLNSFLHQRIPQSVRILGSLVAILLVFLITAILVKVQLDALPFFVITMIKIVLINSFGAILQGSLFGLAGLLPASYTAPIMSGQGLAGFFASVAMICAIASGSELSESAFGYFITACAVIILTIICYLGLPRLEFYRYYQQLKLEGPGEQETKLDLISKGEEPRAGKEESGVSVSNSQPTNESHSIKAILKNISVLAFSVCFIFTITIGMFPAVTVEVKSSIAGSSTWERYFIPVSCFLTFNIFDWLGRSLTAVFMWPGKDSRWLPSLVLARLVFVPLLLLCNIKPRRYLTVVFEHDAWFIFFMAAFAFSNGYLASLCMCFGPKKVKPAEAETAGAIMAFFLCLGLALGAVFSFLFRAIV

[7] = biological target: T2, Equilibrative nucleoside transporter 1; experiment: Affinity Biochemical interaction: (radioligand binding assay, inhibition of [3H]S-(4-Nitrobenzyl)-6-thioinosine binding to target) EUB0002560a SLC29A1
Procathepsin L = Procathepsin L (Homo sapiens, UniProt P07711); experiment: Affinity Biochemical interaction: (enzymatic assay (fluorogenic substrate cleavage)) EUB0002529a CTSL; format: functional
Sequence of Procathepsin L (P07711 whole entry): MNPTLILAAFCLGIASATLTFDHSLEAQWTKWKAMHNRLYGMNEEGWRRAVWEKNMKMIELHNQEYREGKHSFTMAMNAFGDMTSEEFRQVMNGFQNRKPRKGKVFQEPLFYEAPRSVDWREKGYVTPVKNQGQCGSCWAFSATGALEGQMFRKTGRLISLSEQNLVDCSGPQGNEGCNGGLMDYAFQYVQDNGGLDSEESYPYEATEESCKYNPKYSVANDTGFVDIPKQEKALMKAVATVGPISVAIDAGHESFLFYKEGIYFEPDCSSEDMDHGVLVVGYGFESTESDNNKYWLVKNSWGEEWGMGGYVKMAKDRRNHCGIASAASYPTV

[8] = biological target: Arginase-2, mitochondrial (Homo sapiens, UniProt P78540); experiment: Affinity Biochemical interaction: (competitive binding assay with radiolabelled [guanido-14C][…] as substrate) EUB0002484aCl ARG2
Sequence of Arginase-2, mitochondrial (P78540 whole entry): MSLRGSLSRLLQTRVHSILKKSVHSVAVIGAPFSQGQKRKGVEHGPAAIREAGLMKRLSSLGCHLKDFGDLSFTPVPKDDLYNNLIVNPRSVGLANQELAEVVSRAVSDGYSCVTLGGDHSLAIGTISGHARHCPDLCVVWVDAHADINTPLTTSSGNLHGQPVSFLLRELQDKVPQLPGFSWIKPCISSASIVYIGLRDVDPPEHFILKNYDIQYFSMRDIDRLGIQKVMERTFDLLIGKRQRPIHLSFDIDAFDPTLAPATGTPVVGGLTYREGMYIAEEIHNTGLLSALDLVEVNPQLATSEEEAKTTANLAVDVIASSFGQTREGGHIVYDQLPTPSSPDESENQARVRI

Acid ceramidase = Acid ceramidase (Homo sapiens, UniProt Q13510); experiment: Affinity Biochemical interaction: (inhibition of substrate hydrolysis determined through mass spectrometry) EUB0002527a ASAH1; format: functional
[9] = biological target: Histone acetyltransferase p300 (Homo sapiens, UniProt Q09472); experiment: Affinity Biochemical interaction: (inhibition of acetyl-transferase reaction) EUB0002628aAD EP300; format: functional
[10] = biological target: 3',5'-cyclic-AMP phosphodiesterase 4B (Homo sapiens, UniProt Q07343); experiment: Affinity Biochemical interaction: (Inhibition of enzyme activity, scintillation proximity assay with radiolabelled [3H]cAMP) EUB0002694a PDE4B; format: functional
Sequence of 3',5'-cyclic-AMP phosphodiesterase 4B (Q07343 whole entry): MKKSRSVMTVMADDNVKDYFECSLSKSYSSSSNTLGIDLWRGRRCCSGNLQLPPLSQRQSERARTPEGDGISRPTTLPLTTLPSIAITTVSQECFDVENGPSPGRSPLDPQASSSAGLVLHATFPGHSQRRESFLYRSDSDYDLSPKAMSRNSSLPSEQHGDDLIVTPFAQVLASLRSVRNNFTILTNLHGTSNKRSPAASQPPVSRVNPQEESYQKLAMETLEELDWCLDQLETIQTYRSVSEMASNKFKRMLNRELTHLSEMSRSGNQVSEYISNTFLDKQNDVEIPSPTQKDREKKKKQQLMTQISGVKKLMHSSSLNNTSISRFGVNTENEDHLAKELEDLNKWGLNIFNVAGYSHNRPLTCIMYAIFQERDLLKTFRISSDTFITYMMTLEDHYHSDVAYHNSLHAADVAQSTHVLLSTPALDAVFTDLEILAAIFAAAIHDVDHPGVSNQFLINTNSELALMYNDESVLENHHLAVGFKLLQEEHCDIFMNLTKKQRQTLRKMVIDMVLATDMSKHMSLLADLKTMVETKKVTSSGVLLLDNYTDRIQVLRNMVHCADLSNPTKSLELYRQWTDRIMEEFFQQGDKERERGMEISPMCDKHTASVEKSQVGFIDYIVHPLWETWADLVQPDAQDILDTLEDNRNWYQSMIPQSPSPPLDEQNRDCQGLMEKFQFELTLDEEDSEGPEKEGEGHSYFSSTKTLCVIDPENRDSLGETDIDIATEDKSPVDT

[11] = biological target: NAD-dependent protein deacetylase sirtuin-7 (Homo sapiens, UniProt Q9NRC8); experiment: Affinity Biochemical interaction: (inhibition of deacetylase activity, luminescence measurement using the SIRT7 assay kit) EUB0002717a SIRT7; format: functional
[12] = biological target: T3, Histone-lysine N-methyltransferase SETD7 (Homo sapiens, UniProt Q8WTS6); experiment: Affinity Biochemical interaction: (inhibition of histone H3(1-21) methylation) EUB0002319a SETD7; format: functional
T3 sequence (Q8WTS6 whole entry): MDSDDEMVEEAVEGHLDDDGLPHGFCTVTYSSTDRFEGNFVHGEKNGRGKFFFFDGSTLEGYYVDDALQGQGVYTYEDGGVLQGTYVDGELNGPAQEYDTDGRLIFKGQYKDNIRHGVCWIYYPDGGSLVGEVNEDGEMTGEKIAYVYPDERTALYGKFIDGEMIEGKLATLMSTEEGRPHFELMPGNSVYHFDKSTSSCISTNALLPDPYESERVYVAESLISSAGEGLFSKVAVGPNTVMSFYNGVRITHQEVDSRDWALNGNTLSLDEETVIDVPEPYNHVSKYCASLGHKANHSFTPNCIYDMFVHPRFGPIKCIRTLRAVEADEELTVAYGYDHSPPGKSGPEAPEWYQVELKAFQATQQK

[13] = biological target: T3, Histone-lysine N-methyltransferase SETD7; experiment: Affinity Biochemical interaction: (inhibition of histone H3 methylation) EUB0002319a SETD7; format: functional
[14] = biological target: T4, Protein arginine N-methyltransferase 5 (Homo sapiens, UniProt O14744); experiment: Affinity Biochemical interaction: (inhibition of histone H4 (1-21) methylation) EUB0002319a PRMT5; format: functional
T4 sequence (O14744 whole entry): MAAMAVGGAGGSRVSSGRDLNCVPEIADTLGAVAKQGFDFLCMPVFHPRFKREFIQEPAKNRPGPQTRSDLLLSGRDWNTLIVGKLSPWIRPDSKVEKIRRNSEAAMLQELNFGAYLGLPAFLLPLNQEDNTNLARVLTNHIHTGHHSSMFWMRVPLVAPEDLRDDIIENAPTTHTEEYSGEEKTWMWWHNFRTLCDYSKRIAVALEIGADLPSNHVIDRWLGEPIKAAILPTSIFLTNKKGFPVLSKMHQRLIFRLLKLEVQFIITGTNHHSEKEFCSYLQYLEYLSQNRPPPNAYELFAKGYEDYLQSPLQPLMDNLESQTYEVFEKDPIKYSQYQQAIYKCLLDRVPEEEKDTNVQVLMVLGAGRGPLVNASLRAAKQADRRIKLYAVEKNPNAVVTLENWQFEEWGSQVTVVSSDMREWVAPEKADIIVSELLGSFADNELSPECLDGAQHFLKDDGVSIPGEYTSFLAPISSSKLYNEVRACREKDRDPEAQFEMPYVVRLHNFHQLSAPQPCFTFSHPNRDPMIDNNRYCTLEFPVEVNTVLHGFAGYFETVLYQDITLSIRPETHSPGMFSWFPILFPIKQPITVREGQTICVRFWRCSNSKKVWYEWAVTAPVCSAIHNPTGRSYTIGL

[15] = biological target: T4, Protein arginine N-methyltransferase 5; experiment: Affinity Biochemical interaction: (inhibition of histone H4 methylation) EUB0002319a PRMT5; format: functional
Adenosine kinase = Adenosine kinase (Homo sapiens, UniProt P55263); experiment: Affinity Biochemical interaction: (radiochemical assay, inhibition of AK activity in cell supernatants) EUB0002485aCl ADK; format: functional, subcellular

SMILES: C[C@@H](Oc1ccc(CNC(=O)c2cccnc2Oc2ccc3c(c2)OCO3)c(F)c1)C(=O)O
IC50 [2]: 37 nM

SMILES: CCC1CCCCN1C(=O)n1ncc(C(O)(c2ccccc2)c2ccccc2)n1 (stereo not drawn)
IC50 [3]: 15 nM

SMILES: O=C(c1ccc2[nH]ccc2c1)N1CCN(S(=O)(=O)c2ccc3[nH]c(=O)oc3c2)CC1
IC50 [4]: 25 nM | IC50 [5]: 57 nM

SMILES: NC(=O)C1CN(CCCCC(c2ccc(F)cc2)c2ccc(F)cc2)CCN1CC(=O)Nc1c(Cl)cc(N)cc1Cl (stereo not drawn) [DRAFLAZINE]
Ki [6]: 0.28 nM | Ki [7]: 0.94 nM

SMILES: Cn1nc(C(C)(C)C)cc1C(=O)NC(Cc1cccc(Cl)c1)C(=O)NCC#N (stereo not drawn)
Ki (Procathepsin L): 82 nM

SMILES: N#Cc1ccc(-c2c3n(c4cccnc24)CCN(C2CC2)C3=O)cc1F [PF-06445974]
IC50 [10]: < 1 nM

SMILES: Nc1cccc(Nc2ncc(-c3ccc(Cl)cc3)o2)c1
IC50 [11]: 325 nM

The next lines start with the values.

IC50 [1]: 1.3 nM
SMILES: O=C(N(CCc1ccccc1)C1CCCCC1)n1ncc(-c2ccc(OC(F)(F)F)cc2)n1

Ki [8]: 250 nM
SMILES: N[C@@H](CCCCB(O)O)C(=O)O

IC50 (Acid ceramidase): 29 nM
SMILES: CCCCCCNC(=O)n1cc(F)c(=O)[nH]c1=O [CARMOFUR]

IC50 [9]: ~50 nM
SMILES: CC(=O)N[C@@H](CCCCNC(=O)CSCCNC(=O)CCNC(=O)[C@H](O)C(C)(C)COP(=O)(O)OP(=O)(O)OC[C@H]1O[C@@H](n2cnc3c(N)ncnc32)[C@H](O)[C@@H]1OP(=O)(O)O)C(N)=O

IC50 [12]: 2380 nM | IC50 [13]: 9100 nM | IC50 [14]: 310 nM | IC50 [15]: 690 nM
SMILES: Nc1ncnc2c1ncn2[C@@H]1O[C@H](C[C@@H](N)CC[C@H](N)C(=O)O)[C@@H](O)[C@H]1O [SINEFUNGIN]

IC50 (Adenosine kinase): 3 nM
SMILES: Nc1ncnc2nc(-c3ccc(N4CCOCC4)nc3)cc(-c3cccc(Br)c3)c12
